Laboratory results as given in patent publication US4707481A, “Pyridazinones, their preparation and use, and bronchospasmolytic medicaments containing pyridazinones” (BYK Gulden Lomberg Chemische Fabrik GmbH, priority 1983, dated 1987).
Like-named read-outs stand apart in the source and are kept apart here.

How the values were obtained:
[1] = test system: guinea pig hearts isolated and perfused by the Langendorff method; assay: left-ventricular pressure and heart rate in isolated perfused Langendorff hearts; conditions: for Emax: Cavia porcellus; for EC20 left-ventricular pressure: dose which leads to a 20% increase in left ventricular pressure
Text: After the animals have been sacrificed by a blow to the neck and exsanguination through the carotid arteries, the thoracic cavity is opened, and the aorta is exposed and looped up with a thread. A cannula, which is attached by tubing to the apparatus from which the nutrient solution slowly drops, is introduced in the direction of the heart and the heart is, quickly after removal from the thorax, connected to the perfusion apparatus. A balloon probe, connected to a Statham pressure sensor, is advanced through a cut through the left atrium into the left ventricle, and is provided with an initial pressure of 40 mm Hg. […] The nutrient solution flowing freely from the coronary sinus into the right atrium is measured with a flow […]) and, together with the change in the left-ventricular pressure and the heart rate determined from this, is recorded on a Watanabe recorder. The substances are administered in a volume of 0.1 ml of nutrient solution, in the dosage indicated in Tab.

[2] = test system: right ventricle of guinea pigs; assay: heart function dP/dtmax, right ventricle of anesthetized guinea pigs; assay type: in vivo, guinea pig
Method: The effect of the substances on the contractility of the heart of guinea pigs is tested on animals (.male., 400 to 1000 g) under urethane anesthesia. The change in pressure in the right ventricle of the heart is measured with a tip catheter introduced through the right jugular vein and the maximum rate of pressure rise (dP/dtmax) is determined from this. The heart rate is derived from the pressure waves. […] The test substances were administered intravenously. 5-7 animals were used for each measurement, and the arithmetic mean was calculated from the results.

left ventricles of cats = assay: heart function dP/dtmax, left ventricle of anesthetized cats; assay type: in vivo, cat; conditions: for increase in the heart rate or end-diastolic ventricular pressure / positive inotropic effects (increase in dP/dtmax) compared with comparison compounds: result in words
Method: The effect of the substances on the contractility of the heart in cats was tested on animals (.male., .female., 3.2 to 5.2 kg) under anesthesia with chloralose/urethane. The change in pressure in the left ventricle of the heart was measured with a tip catheter introduced through the right carotid artery, the R peak in the ECG (bipolar chest lead) initiating a signal to record the end-diastolic pressure; in addition, the maximum rate of pressure rise (dP/dtmax) was determined from the change in pressure. The heart rate was derived from the pressure waves. The test substances were administered intravenously. 2-6 animals were used per measurement, and the arithmetic mean was calculated from the results.

[3] = test system: chain of tracheal rings of guinea pigs; assay: relaxing action on chain of tracheal rings in vitro (bronchospasmolytic action); design: species or system guinea pig; conditions: for EC50: Cavia porcellus, Column A, negative logarithm of EC50 in mol/l, 50% of maximum relaxation by (-)isoprenaline, read-out: -lg[EC50] trachea (converted); for [EC40 pot.] left atrium / [EC50] trachea: Column C, measure of organ-selective activity; for [EC50] theophylline / [EC50] substance: Column D, trachea
Method: The relaxing action of the 6-aryl-3[2H]pyridazinones I has been tested in vitro on a chain of tracheal rings (Tr.) of guinea pigs. […] The quotient of [EC40pot. ]left atrium and [ED50 ]trachea serves as a measure of the organ-selective activity.
The bronchospasmolytic action of the compounds on the chain of tracheal rings of the guinea pig was tested in vitro:
Four parallel chains of tracheal rings, each consisting of 6 individual rings, of guinea pigs(.male. and .female., 430-600 g) in an organ bath [5 ml, Krebs-Henseleit solution with added phentolamine (10^-5 mol/l), 37° C., initial tension of the organs 2 g, gassing with carbogen] develop a stable, spontaneous tonic contraction after about 20 to 30 minutes. […] Over a period of 20 to 30 minutes, a complete dose/action curve of the test substance is thus obtained. The particular relaxation is expressed as a percentage fraction of the maximum relaxation which can be achieved by administration of (-)isoprenaline (10^-6 mol/1). The concentration of the test substance which causes 50% of the maximum relaxation which can be achieved, expressed by the negative logarithm of the EC50 mol/l: -lg[EC50 ]is a measure of the bronchodilator activity.

[4] = test system: electrically stimulated left atrium of rats; assay: positive inotropic action on electrically stimulated left atrium in vitro; design: species or system rat; conditions: for [EC40 pot.] theophylline / [EC40 pot.] substance: Column E, left atrium; for EC40: Rattus norvegicus, Column B, negative logarithm of EC40pot in mol/l, 40% increase in contraction force, read-out: -lg[EC40 pot.] left atrium (converted)
Method: The positive inotropic action was tested in vitro on the electrically stimulated left atrium of rats (l.a.).
The positive inotropic action of the compounds was tested in vitro on the electrically stimulated left atrium of rats.
Isometric contractions (HSE force sensor K-30; Watanabe recorder, Linear Corder Mark 5) of isolated, left atria from rats (.male., 250-300 g) in an organ bath (10 ml, Tyrode nutrient solution, 31° C., gassing with carbogen, initial tension of the organs 0.25 g) under electrical stimulation (HSE stimulator, 7 V, 3 ms, 2 Hz) were recorded. […] The particular increase in the contraction force is expressed in % of the starting value before administration of the substance. The concentration of the test substance which potentiates the contraction force of the atrium by 40% compared with the starting value [EC40pot. mol/l], expressed by the negative logarithm of the [EC40pot mol/l]: -lg[EC40pot ] serves as a measure of the cardiotonic activity.

[5] = test system: acetylcholine-induced bronchospasm; assay: protective effect against acetylcholine-induced bronchospasm in conscious guinea pigs; assay type: in vivo, guinea pig
Method: The figure in parentheses indicates the number out of 10 animals in which the latency period more than tripled.
The latency period is to be understood to be the time from the start of acetylcholine-atomization until clear signs of asthma appeared.
The time from the start of atomization to the onset of clear respiratory exertion (in certain circumstances, hypoxic convulsion in the lateral position) is measured, and is denoted the latency period.
The test substance is administered orally by gavage (standard dose 100 μmol/kg, volume 1 ml of 4% strength methocel suspension in 0.9% strength sodium chloride solution/kg). […] Prolongation of the latency period to at least twice its length is regarded as a protective effect.

[6] = 0.3 μmol/kg i.v., 0-10 min (Maximum)
[7] = 1 μmol/kg i.v., 0-10 min (Maximum)
[8] = 3 μmol/kg i.v., 0-10 min (Maximum)
[9] = after 1000 nMol, read-out: Emax left-ventricular pressure
[10] = at Emax, 1000 nMol, read-out: Percentage increase in heart rate at Emax

Nc1cc(-c2ccncc2)c[nH]c1=O [Amrinone, amrinone, reference compound]
Emax ([1]; after 3000 nMol, read-out: Emax left-ventricular pressure): 35%
Emax ([1]; at Emax, 3000 nMol, read-out: Percentage increase in heart rate at Emax): 8%
Percentage increase in heart rate at EC20 [1]: 7%
EC20 left-ventricular pressure [1]: 1410 nmol
Percentage change in dP/dtmax [2, 6]: 33%
Percentage change in dP/dtmax ([2]; 0.3 μmol/kg i.v., 10 min): 8%
Percentage change in dP/dtmax ([2]; 0.3 μmol/kg i.v., 30 min): 13%
Percentage change in dP/dtmax [2, 7]: 40%
Percentage change in dP/dtmax ([2]; 1 μmol/kg i.v., 10 min): 21%
Percentage change in dP/dtmax ([2]; 1 μmol/kg i.v., 30 min): 15%
Percentage change in dP/dtmax [2, 8]: 66%
Percentage change in dP/dtmax ([2]; 3 μmol/kg i.v., 10 min): 13%
Percentage change in dP/dtmax ([2]; 3 μmol/kg i.v., 30 min): 20%
Percentage change in dP/dtmax ([2]; 10 μmol/kg i.v., 0-10 min (Maximum)): 101%
Percentage change in dP/dtmax ([2]; 10 μmol/kg i.v., 10 min): 39%
Percentage change in dP/dtmax ([2]; 10 μmol/kg i.v., 30 min): 29%
Percentage change in dP/dtmax ([2]; 30 μmol/kg i.v., 0-10 min (Maximum)): 141%
Percentage change in dP/dtmax ([2]; 30 μmol/kg i.v., 10 min): 78%
Percentage change in dP/dtmax ([2]; 30 μmol/kg i.v., 30 min): 69%
Percentage change in dP/dtmax (left ventricles of cats; 1 μmol/kg i.v., 3 min): 17%
Percentage change in dP/dtmax (left ventricles of cats; 1 μmol/kg i.v., 10 min): 6%
Percentage change in dP/dtmax (left ventricles of cats; 1 μmol/kg i.v., 30 min): 7%
Percentage change in dP/dtmax (left ventricles of cats; 1 μmol/kg i.v., 60 min): 23%
Percentage change in dP/dtmax (left ventricles of cats; 3 μmol/kg i.v., 3 min): 52%
Percentage change in dP/dtmax (left ventricles of cats; 3 μmol/kg i.v., 10 min): 42%
Percentage change in dP/dtmax (left ventricles of cats; 3 μmol/kg i.v., 30 min): 40%
Percentage change in dP/dtmax (left ventricles of cats; 3 μmol/kg i.v., 60 min): 43%
Percentage change in dP/dtmax (left ventricles of cats; 10 μmol/kg i.v., 3 min): 70%
Percentage change in dP/dtmax (left ventricles of cats; 10 μmol/kg i.v., 10 min): 67%
Percentage change in dP/dtmax (left ventricles of cats; 10 μmol/kg i.v., 30 min): 59%
Percentage change in dP/dtmax (left ventricles of cats; 10 μmol/kg i.v., 60 min): 55%

CCOc1ccc(-c2ccc(=O)[nH]n2)cc1OC [Serial No. 4, 6-(4-ethoxy-3-methoxyphenyl)-3[2H]pyridazinone]
EC50 [3]: 1.32 µM
[EC40 pot.] left atrium / [EC50] trachea [3]: 2.9
[EC50] theophylline / [EC50] substance [3]: 102
[EC40 pot.] theophylline / [EC40 pot.] substance [4]: 109
EC40 [4]: 3.8 µM
Emax ([1]; after 300 nMol, read-out: Emax left-ventricular pressure): 58%
Emax ([1]; at Emax, 300 nMol, read-out: Percentage increase in heart rate at Emax): 27%
Percentage increase in heart rate at EC20 [1]: 6%
EC20 left-ventricular pressure [1]: 22 nmol
Percentage change in dP/dtmax [2, 6]: 39%
Percentage change in dP/dtmax ([2]; 0.3 μmol/kg i.v., 10 min): 12%
Percentage change in dP/dtmax ([2]; 0.3 μmol/kg i.v., 30 min): 23%
Percentage change in dP/dtmax [2, 7]: 140%
Percentage change in dP/dtmax ([2]; 1 μmol/kg i.v., 10 min): 26%
Percentage change in dP/dtmax ([2]; 1 μmol/kg i.v., 30 min): 56%
Percentage change in dP/dtmax [2, 8]: 95%
Percentage change in dP/dtmax ([2]; 3 μmol/kg i.v., 10 min): 66%
Percentage change in dP/dtmax ([2]; 3 μmol/kg i.v., 30 min): 59%

C=CCOc1ccc(-c2ccc(=O)[nH]n2)cc1OC [Serial No. 5, 6-(4-allyloxy-3-methoxyphenyl)-3[2H]pyridazinone]
EC50 [3]: 1.51 µM
[EC40 pot.] left atrium / [EC50] trachea [3]: 4.4
[EC50] theophylline / [EC50] substance [3]: 85.2
[EC40 pot.] theophylline / [EC40 pot.] substance [4]: 63.1
EC40 [4]: 6.61 µM
Emax [1, 9]: 185%
Emax [1, 10]: 9%
Percentage increase in heart rate at EC20 [1]: 3%
EC20 left-ventricular pressure [1]: 14 nmol
Percentage change in dP/dtmax (left ventricles of cats; 0.3 μmol/kg i.v., 3 min): 27%
Percentage change in dP/dtmax (left ventricles of cats; 0.3 μmol/kg i.v., 10 min): 12%
Percentage change in dP/dtmax (left ventricles of cats; 0.3 μmol/kg i.v., 30 min): 11%
Percentage change in dP/dtmax (left ventricles of cats; 0.3 μmol/kg i.v., 60 min): 13%
Percentage change in dP/dtmax (left ventricles of cats; 1 μmol/kg i.v., 3 min): 64%
Percentage change in dP/dtmax (left ventricles of cats; 1 μmol/kg i.v., 10 min): 25%
Percentage change in dP/dtmax (left ventricles of cats; 1 μmol/kg i.v., 30 min): 15%
Percentage change in dP/dtmax (left ventricles of cats; 1 μmol/kg i.v., 60 min): 20%
increase in the heart rate or end-diastolic ventricular pressure (left ventricles of cats): without leading to any considerable increase in the heart rate or end-diastolic ventricular pressure
positive inotropic effects (increase in dP/dtmax) compared with comparison compounds (left ventricles of cats): stronger positive inotropic effects

CCC(C)Oc1ccc(-c2ccc(=O)[nH]n2)cc1OC (stereo not drawn) [Serial No. 7, 6-(4-sec.-butoxy-3-methoxyphenyl)-3[2H]pyridazinone]
EC50 [3]: 1.32 µM
[EC40 pot.] left atrium / [EC50] trachea [3]: 2.6
[EC50] theophylline / [EC50] substance [3]: 102
[EC40 pot.] theophylline / [EC40 pot.] substance [4]: 120
EC40 [4]: 3.47 µM
Emax [1, 9]: 86%
Emax [1, 10]: 23%
Percentage increase in heart rate at EC20 [1]: 3%
EC20 left-ventricular pressure [1]: 13 nmol
Percentage change in dP/dtmax (left ventricles of cats; 0.3 μmol/kg i.v., 3 min): 36%
Percentage change in dP/dtmax (left ventricles of cats; 0.3 μmol/kg i.v., 10 min): 4%
Percentage change in dP/dtmax (left ventricles of cats; 0.3 μmol/kg i.v., 30 min): 1%
Percentage change in dP/dtmax (left ventricles of cats; 0.3 μmol/kg i.v., 60 min): 2%
Percentage change in dP/dtmax (left ventricles of cats; 1 μmol/kg i.v., 3 min): 90%
Percentage change in dP/dtmax (left ventricles of cats; 1 μmol/kg i.v., 10 min): 25%
Percentage change in dP/dtmax (left ventricles of cats; 1 μmol/kg i.v., 30 min): 11%
Percentage change in dP/dtmax (left ventricles of cats; 1 μmol/kg i.v., 60 min): 11%
increase in the heart rate or end-diastolic ventricular pressure (left ventricles of cats): without leading to any considerable increase in the heart rate or end-diastolic ventricular pressure
positive inotropic effects (increase in dP/dtmax) compared with comparison compounds (left ventricles of cats): stronger positive inotropic effects

CCCOc1ccc(-c2ccc(=S)[nH]n2)cc1OC [Serial No. 13, 6-(3-methoxy-4-n-propoxyphenyl)-3[2H]pyridazinethione]
EC50 [3]: 3.09 µM
[EC40 pot.] left atrium / [EC50] trachea [3]: 324
[EC50] theophylline / [EC50] substance [3]: 43.7
EC40 [4]: > 1000 µM
Doubling of the latency period ([5]; 100 μmol/kg p.o., 30 min): 6 N of 10 animals
Tripling of the latency period ([5]; 100 μmol/kg p.o., 30 min, figure in parentheses): 6 N of 10 animals
protective effect compared with theophylline ([5]; result in words): greater protective effect

Cn1c(=O)c2[nH]cnc2n(C)c1=O.NCCN [Theophylline-ethylenediamine, theophylline-ethylenediamine, reference compound]
Percentage change in dP/dtmax (left ventricles of cats; 3 μmol/kg i.v., 3 min): 8%
Percentage change in dP/dtmax (left ventricles of cats; 3 μmol/kg i.v., 10 min): 2%
Percentage change in dP/dtmax (left ventricles of cats; 3 μmol/kg i.v., 30 min): 2%
Percentage change in dP/dtmax (left ventricles of cats; 3 μmol/kg i.v., 60 min): 1%
Percentage change in dP/dtmax (left ventricles of cats; 10 μmol/kg i.v., 3 min): 62%
Percentage change in dP/dtmax (left ventricles of cats; 10 μmol/kg i.v., 10 min): 30%
Percentage change in dP/dtmax (left ventricles of cats; 10 μmol/kg i.v., 30 min): 22%
Percentage change in dP/dtmax (left ventricles of cats; 10 μmol/kg i.v., 60 min): 26%

CCOc1cc(-c2ccc(=S)[nH]n2)ccc1OC [compound 14]
EC50 [3]: 1.41 µM
[EC40 pot.] left atrium / [EC50] trachea [3]: 1.5
[EC50] theophylline / [EC50] substance [3]: 95.5
[EC40 pot.] theophylline / [EC40 pot.] substance [4]: 200
EC40 [4]: 2.09 µM

COc1ccc(-c2ccc(=S)[nH]n2)cc1OC(C)C [compound 17]
EC50 [3]: 7.24 µM
[EC40 pot.] left atrium / [EC50] trachea [3]: 0.4
[EC50] theophylline / [EC50] substance [3]: 18.6
[EC40 pot.] theophylline / [EC40 pot.] substance [4]: 151
EC40 [4]: 2.75 µM

COc1ccc(-c2ccc(=S)[nH]n2)cc1OCC(C)C [compound 18]
EC50 [3]: 4.07 µM
[EC40 pot.] left atrium / [EC50] trachea [3]: 0.6
[EC50] theophylline / [EC50] substance [3]: 33.1
[EC40 pot.] theophylline / [EC40 pot.] substance [4]: 166
EC40 [4]: 1.58 µM
